T1: TrzD (Enterobacter cloacae, UniProt P0A3V4)
T1 sequence (P0A3V4 1-370): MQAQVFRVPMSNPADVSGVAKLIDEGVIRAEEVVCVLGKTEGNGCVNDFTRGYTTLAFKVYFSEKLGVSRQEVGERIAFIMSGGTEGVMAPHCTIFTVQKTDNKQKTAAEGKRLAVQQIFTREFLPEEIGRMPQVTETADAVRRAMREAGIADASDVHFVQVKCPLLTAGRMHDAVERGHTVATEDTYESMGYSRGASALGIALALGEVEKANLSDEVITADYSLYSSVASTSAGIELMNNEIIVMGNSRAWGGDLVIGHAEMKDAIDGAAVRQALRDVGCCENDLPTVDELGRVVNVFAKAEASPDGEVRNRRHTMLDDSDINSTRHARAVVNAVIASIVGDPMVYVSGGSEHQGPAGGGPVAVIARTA

B1: TrzD, a cyanuric acid hydrolase from Acidovorax citrulli (enzyme, UniProt P0A3V4 1-370, looked up)
chain: T1 sequence (P0A3V4 1-370)
notes: TrzD, cyanuric acid hydrolase of Acidovorax citrulli; full-length trzD gene in pET28b(+); 370 amino acids, ~39.5 kDa; source: E. coli BL21 (DE3), purified (Ni-NTA, Superdex-200 gel filtration); not shown: His-tag, N-terminal, kept

How the values were obtained:
[1] = molecular target: T1, TrzD; test: co-crystallisation with substrate, X-ray […] A; co-product CO2 seen in density; format: biochemical; settings: 10 mM cyanuric acid in drop, BIS-TRIS pH 6.5, 20 °C; Mg2+ bound in domain 3; turned over, cyanuric acid itself not reported in the model
[2] = molecular target: the molecule itself; test: SEC + other: dynamic light scattering; purified TrzD in solution; conditions of this experiment not told

Molecule	co-crystallisation with substrate, X-ray 2.19 A; co-product CO2 seen in density [1]	stoichiometry N [2]
O=c1[nH]c(=O)[nH]c(=O)[nH]1 [cyanuric acid, 1,3,5-triazinane-2,4,6-trione]	The protein was crystallized with its natural substrate cyanuric acid by hanging drop	–
B1	–	4
